Common to all, as to test: NCI-60 cell line screen, 48 h
Test [1] deals with HCC-2998 colon.
Test [2] deals with DU-145 prostate.
In test [3] the test system is OVCAR-3 ovarian.
For test [4], the system named is SNB-75 CNS.
Test [5] relates to EKVX NSCLC.
The test system of test [6] is HL-60(TB) leukemia.
Test [7] relates to PC-3 prostate.
Test [8] concerns UO-31 renal.
The subject of test [9] is HCT-15 colon.
Test [10] deals with M14 melanoma.

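Test compounds were applied to cells in 96-well plates for 48 hours at 5 doses. GI50 = concentration required for 50% inhibition of growth. TGI is the concentration that stops growth completely.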

Take `Nc1ccccc1C#C/C=C\C#Cc1cccc(O)c1`: the GI50 in [1] is 3.98 µM; in test [2], 16.8 µM; in [3], 2.73 µM; in [4], 1.36 µM; in test [5], 2.69 µM; in [6], 4.15 µM. The GI50 in test [7] was 6.5 µM; in [9], 2.04 µM; in [10] it was 1.3 µM. Besides, the TGI was 9.08 µM in [1]; more than 57.7 µM in [2]; 14.7 µM in test [3]; 13.5 µM in test [4]; 23.4 µM in [5]; 21.2 µM in [6]. Moreover, the TGI in test [7] was 42.7 µM; in test [8], 13.9 µM; in test [9], 13.9 µM; in test [10], 5.65 µM.

For the compound `Cc1ccc(C(=O)NC2CCC2)cc1-c1ccc(C(=O)NCC2CC2)cc1`, the GI50 in [1], in test [2], in test [3], in test [4], in test [5] and in [6] was more than 25 µM throughout. Moreover, the GI50 in test [7], in test [8], in test [9] and in [10] was more than 25 µM each time. Moreover, the TGI in test [1], in test [2], in test [3], in test [4], in test [5] and in test [6] was more than 25 µM throughout. Further, the TGI in test [7], in [8], in [9] and in [10] was more than 25 µM in each case.

As for `O=[N+]([O-])c1ccc(N=Nc2ccc(O)c3ccccc23)cc1`, the GI50 is 10.3 µM in [1]; 6.66 µM in test [2]; 1.77 µM in test [3]; 2.45 µM in test [4]; 7.44 µM in test [5]; 5.39 µM in test [6]. Also, the results for the GI50 in test [7], in [8] and in [9] were 1.67 µM, 5.42 µM and 3.29 µM, respectively. Moreover, the TGI was more than 100 µM in test [1]; more than 100 µM in test [2]; 6 µM in test [3]; more than 100 µM in [4]; more than 100 µM in [5]; 21 µM in test [6]. Further, the TGI in test [7], in test [8] and in test [9] was more than 100 µM in each case.

Turning to `COc1ccc(NC(=S)c2ccoc2C)cc1CC(=O)OC(C)C`, the TGI in test [1] was more than 100 µM; in test [2] it was more than 100 µM; in test [3], more than 100 µM; in test [4] it was 93.9 µM; in test [5], more than 100 µM; in test [6], 54.5 µM. Besides, the TGI in test [7] is 62.3 µM; in [8], more than 100 µM; in [9], more than 100 µM; in test [10] it was 64.3 µM.

Turning to `CN(C)c1ccc(C(=NO)c2ccc(N(C)C)cc2)cc1`, the GI50 in test [1] was 8.06 µM; in [2], 4.52 µM; in test [3], 2.22 µM; in [4], 3.33 µM; in test [5], 3.28 µM; in test [6], 1.62 µM. Besides, the GI50 was 18.1 µM in [7], 4.73 µM in test [8] and 1.64 µM in test [9]. In addition, the TGI was more than 100 µM in [1]; more than 100 µM in test [2]; 10.1 µM in test [3]; 53.2 µM in [4]; more than 100 µM in [5]; more than 100 µM in [6]. The TGI in [7], in [8] and in [9] was more than 100 µM throughout.

On to `Nc1ncnc2c1c(-c1ccc(Oc3ccccc3)cc1)nn2C[C@@H]1SSC[C@H]1O`, for which the GI50 in test [1] was 4.34 µM; in [2], 2.26 µM; in test [3] it was 0.819 µM; in test [4], 4.25 µM; in [5], 0.568 µM; in test [6], 1.84 µM. Besides, the GI50 is 3.23 µM in [7], 1.07 µM in test [8] and 1.16 µM in test [9]. Further, the TGI in test [1] was 23.5 µM; in test [2], 8.97 µM; in [3], 9.76 µM; in test [4], more than 33.4 µM; in test [5], 10.5 µM; in test [6], 6.79 µM. Also, the figures for the TGI in test [7], in test [8] and in test [9] were 15.5 µM, 3.55 µM and 7.31 µM, respectively.

Turning to `COc1ccc(/C=C(\C(=O)NCc2cccnc2)S(=O)(=O)c2ccccc2)cc1OC`, the GI50 is 3.91 µM in test [1]; 3.06 µM in test [2]; 3.22 µM in [3]; 2.08 µM in test [4]; 3.13 µM in test [5]; 2.01 µM in test [6]. Moreover, the GI50 in test [7] was 3.5 µM; in test [8], 2.69 µM; in test [9], 2.85 µM; in test [10], 2.48 µM. Further, the TGI in test [1] amounted to 15.1 µM; in test [2], 12.4 µM; in [3] it was 11.4 µM; in [4], 7.84 µM; in [5], 12.2 µM; in [6] it was 6.42 µM. The TGI in test [7] worked out at 14.5 µM; in test [8], 11.3 µM; in test [9], 11.7 µM; in test [10] it was 8.59 µM.

For `COC(=O)C1=C(C)NC(C)=C(C(=O)OCC(C)C)C1c1ccccc1[N+](=O)[O-]` (centres undefined), the GI50 was 6.18 µM in test [1]; 5.48 µM in test [2]; 6.35 µM in test [3]; 2.44 µM in test [4]; 8.06 µM in [5]; 2.73 µM in test [6]. Besides, the GI50 in test [7] was 3.54 µM; in test [8], 1.73 µM; in [9] it was 3.88 µM; in test [10], 2.9 µM. Besides, the TGI in test [1] is 22.4 µM; in [2], 34.7 µM; in [3], 19.6 µM; in [4] it was 15.2 µM; in test [5] it was 32.7 µM; in test [6], 9.46 µM. Further, the TGI is 16.9 µM in test [7], 7.07 µM in test [8], 15.9 µM in [9] and 8.21 µM in test [10].

Consider `C#CCNCCN1C(=O)c2ccc3c4c(ccc(c24)C1=O)C(=O)N(CCNCC#C)C3=O`, for which the GI50 in test [1] is 2.49 µM; in [2], 5.35 µM; in test [3], 1.52 µM; in test [4] it was 5.95 µM; in [5] it was 5.93 µM; in test [6] it was 8.35 µM. The GI50 in test [7] is 7.09 µM; in test [8], 3.09 µM; in test [9], 2.95 µM; in test [10], 5.52 µM. In addition, the TGI in test [1] was 10 µM; in test [2], 11.8 µM; in [3], 4.22 µM; in test [4] it was 14.5 µM; in [5], 13.6 µM; in [6] it was 25.8 µM. In addition, the TGI in test [7] came to 21.2 µM; in test [8] it was 12.3 µM; in test [9], 10.6 µM; in test [10] it was 12.6 µM.

With `O1[As]2O[As]3O[As]1O[As](O2)O3`, the GI50 in test [1] was 1.65 µM; in test [2], 2.08 µM; in test [3] it was 0.283 µM; in test [4] it was 0.389 µM; in test [5] it was 1.54 µM; in test [6], 0.344 µM. Moreover, the GI50 in test [7] is 0.781 µM; in [8], 1.22 µM; in test [9], 1.08 µM; in [10], 1.46 µM. Besides, the TGI worked out at 3.6 µM in test [1]; 7.21 µM in test [2]; 0.72 µM in [3]; 3.34 µM in test [4]; 7.12 µM in test [5]; 1.73 µM in [6]. Moreover, the TGI is 5.9 µM in [7], 2.84 µM in test [8], 4.79 µM in [9] and 4.21 µM in [10].

Take `Cc1cnc(CNC(=O)c2c(=O)c3ccc(N4CCCN(C)CC4)nc3n3c2sc2ccccc23)cn1`: the GI50 in [1] was 2.72 µM; in [2] it was 1.03 µM; in test [3], 7.2 µM; in test [4], 9.55 µM; in test [5] it was 9.14 µM; in [6] it was 11.2 µM. For the same compound, the GI50 in test [7] was 4.04 µM; in test [8], 3.03 µM; in test [9], 1.03 µM; in test [10], 6.49 µM. Further, the TGI stood at 21.3 µM in [1]; 6.29 µM in [2]; 22 µM in test [3]; 25.8 µM in test [4]; 23.2 µM in [5]; 31.3 µM in [6]. Also, the TGI in test [7] was found to be 9.7 µM; in test [8], 21.3 µM; in test [9], 7.31 µM; in test [10] it was 23 µM.

Regarding `N#Cc1nc2c(S(=O)(=O)c3ccc(Cl)cc3)c(N)n(CCCN3CCOCC3)c2nc1C#N`, the GI50 in test [1] was 18 µM; in test [2] it was 3.79 µM; in test [3] it was 3.29 µM; in [4], 11.1 µM; in [5] it was 10.6 µM; in test [6] it was 2.14 µM. Also, the figures for the GI50 in test [7], in test [8] and in test [9] were 26.7 µM, 4.58 µM and 4.32 µM, respectively. The TGI was 33.7 µM in test [1]; 19.1 µM in test [2]; 15.3 µM in test [3]; 48.3 µM in [4]; 22.7 µM in test [5]; 6.55 µM in test [6]. Also, the TGI in test [7] is 95.4 µM; in [8], more than 100 µM; in test [9], 27.1 µM.

Consider `CN(C)C(=O)c1cnc2oc3ccc(O)cc3c2c1-c1ccccc1`, for which the GI50 is more than 25 µM in [2]; more than 25 µM in test [3]; 11.7 µM in [4]; more than 25 µM in [5]; more than 25 µM in [6]; 16.6 µM in test [7]. Also, the GI50 in test [8] was 20.5 µM; in [9] it was more than 25 µM; in [10] it was more than 25 µM. The TGI in test [2], in [3], in test [4], in test [5], in [6] and in test [7] was more than 25 µM throughout. Moreover, the TGI in [8], in test [9] and in test [10] was more than 25 µM in each case.

As to `Cc1[nH]c2ccc(F)cc2c1-c1nc2c3cccnc3c3ncccc3c2[nH]1`, the GI50 in [1] is 0.321 µM; in test [2] it was 0.308 µM; in test [3] it was 0.268 µM; in test [4], 0.422 µM; in [5] it was 0.278 µM; in test [6], 0.241 µM. The GI50 in test [7] is 0.393 µM; in test [9], 0.387 µM; in [10], 0.278 µM. For the same compound, the TGI in test [1], in [2], in test [3], in test [4], in test [5] and in test [7] was more than 100 µM throughout. Also, the TGI in [9] and in test [10] was more than 100 µM each time.

With `COc1ccc(C(=O)/C=C/c2cccc(Nc3ccnc4cc(Cl)ccc34)c2)cc1`, the GI50 in test [2] is 2.45 µM; in test [4], 1.51 µM; in test [5] it was 1.75 µM; in test [6] it was 2.98 µM; in [7] it was 2.51 µM; in [9] it was 2.04 µM. Moreover, in test [10], the GI50 is 1.6 µM. Besides, the TGI is more than 100 µM in test [2]; 4.12 µM in test [4]; more than 100 µM in [5]; more than 100 µM in test [6]; more than 100 µM in test [7]; more than 100 µM in test [9]. For the same compound, the TGI in test [10] was more than 100 µM.

`O=[N+]([O-])c1cc(Cl)cnc1Br`: the TGI is 3.05 µM in [1]; more than 100 µM in test [2]; 6.2 µM in test [3]; 15.2 µM in test [5]; 9.11 µM in test [6]; 20.2 µM in test [7]. The figures for the TGI in test [8], in test [9] and in [10] were 3.59 µM, 7.11 µM and 16.3 µM, respectively.

The values above are taken from PubChem BioAssay (NCI).
